Source: PMC3621123 (Journal of medicinal chemistry, 2013)
Several values for one entry are separate records, joined by “and”; a condition that tells them apart may be missing. Equal values may be shown once.

Molecular target: T1, BasE (Acinetobacter baumannii, UniProt A0A0D5YGP3)
Assay: biochemical
Assay type: binding
Details: KD (nM) BasE, FP displacement, 20 nM Fl-Sal-AMS 14, 200 nM BasE, pH 7.5, 25 °C
Molecule `O=C(O)c1cc(-c2cccc(Cl)c2)nc2c1cnn2Cc1ccncc1` [Compound 45] has a Kd of under 10 nM.
With `Cc1ccc(-c2cc(C(=O)O)c3cnn(Cc4ccncc4)c3n2)s1` [Compound 79] the Kd was under 10 nM.
Molecule `O=C(O)c1cc(-c2ccc(O)cc2)nc2c1cnn2Cc1ccncc1` [Compound 42, 6-(4-Hydroxyphenyl)-1-(pyridin-4-ylmethyl)-1H-pyrazolo[3,4-b]pyridine-4-carboxylic acid] has a Kd of under 10 nM.
For `O=C(c1ccccc1)c1ccc(-c2cc(C(=O)O)c3cnn(Cc4ccncc4)c3n2)cc1` [Compound 70], the Kd was 19 nM.
With `O=C(O)c1cc(-c2ccc(OCc3ccccc3)cc2)nc2c1cnn2Cc1ccncc1` [Compound 67] the Kd was 2 nM and < 10 nM.

Same assay, conditions: ratio of KD of lead compound 15 to compound
In the case of `O=C(O)c1cc(-c2cccc(Cl)c2)nc2c1cnn2Cc1ccncc1` [Compound 45], the “fold increase in affinity toward BasE relative to 15” value is reported as “more than 4 fold”.
In the case of `Cc1ccc(-c2cc(C(=O)O)c3cnn(Cc4ccncc4)c3n2)s1` [Compound 79], the “fold increase in affinity toward BasE relative to 15” value is reported as 5 fold.
With `O=C(O)c1cc(-c2ccc(O)cc2)nc2c1cnn2Cc1ccncc1` [Compound 42, 6-(4-Hydroxyphenyl)-1-(pyridin-4-ylmethyl)-1H-pyrazolo[3,4-b]pyridine-4-carboxylic acid] the “fold increase in affinity toward BasE relative to 15” value was “more than 4 fold”.
In the case of `O=C(c1ccccc1)c1ccc(-c2cc(C(=O)O)c3cnn(Cc4ccncc4)c3n2)cc1` [Compound 70], the “fold increase in affinity toward BasE relative to 15” value is reported as 2 fold.
For `O=C(O)c1cc(-c2ccc(OCc3ccccc3)cc2)nc2c1cnn2Cc1ccncc1` [Compound 67], the “fold increase in affinity toward BasE relative to 15” value was 17 fold.

Same assay, conditions: ratio of KD to lead compound 15
With `OCc1cc(-c2ccccc2)nc2c1cnn2Cc1ccncc1` [Compound 19, 4-Hydroxymethyl-6-phenyl-1-(pyridin-4-ylmethyl)-1H-pyrazolo[3,4-b]pyridine] the “fold loss of affinity/potency toward BasE relative to 15” value was 2.8 fold and 3 fold.
With `O=C(O)c1cc(-c2ccco2)nc2c1cnn2Cc1ccncc1` [Compound 75] the “fold loss of affinity/potency toward BasE relative to 15” value was ~ 10 fold.
For `Nc1cc(-c2ccccc2)nc2c1cnn2Cc1ccncc1` [Compound 21, 6-Phenyl-1-(pyridin-4-ylmethyl)-1H-pyrazolo[3,4-b]pyridin-4-amine], the “fold loss of affinity/potency toward BasE relative to 15” value was “approximately 6 fold”.
With `O=C(O)c1cc(-c2ccccc2)cc2c1ccn2Cc1ccncc1` [Compound 17, 6-Phenyl-1-(pyridin-4-ylmethyl)-1H-indole-4-carboxylic acid] the “fold loss of affinity/potency toward BasE relative to 15” value was 1400 fold.
For `O=C(O)c1cc(-c2ccccc2)cc2nn(Cc3ccncc3)cc12` [Compound 99, 6-Phenyl-2-(pyridin-4-ylmethyl)-2H-indazole-4-carboxylic acid], the “fold loss of affinity/potency toward BasE relative to 15” value was 1800 fold.
In the case of `NC(=O)c1cc(-c2ccccc2)nc2c1cnn2Cc1ccncc1` [Compound 22, 6-Phenyl-1-(pyridin-4-ylmethyl)-1H-pyrazolo[3,4-b]pyridine-4-carboxamide], the “fold loss of affinity/potency toward BasE relative to 15” value is reported as 1.8 fold and 2 fold.
In the case of `O=C(O)c1cc(-c2ccccc2)nc2c1cnn2Cc1ccc(O)cc1` [Compound 32, 1-(4-Hydroxybenzyl)-6-phenyl-1H-pyrazolo[3,4-b]pyridine-4-carboxylic acid], the “fold loss of affinity/potency toward BasE relative to 15” value is reported as 15 fold.
In the case of `O=C(O)c1cc(/C=C/c2ccccc2)nc2c1cnn2Cc1ccncc1` [Compound 92], the “fold loss of affinity/potency toward BasE relative to 15” value is reported as ~ 10 fold.
For `Cc1ccsc1-c1cc(C(=O)O)c2cnn(Cc3ccncc3)c2n1` [Compound 77], the “fold loss of affinity/potency toward BasE relative to 15” value was 9 fold.
In the case of `CC(=O)Nc1ccc(-c2cc(C(=O)O)c3cnn(Cc4ccncc4)c3n2)cc1` [Compound 54], the “fold loss of affinity/potency toward BasE relative to 15” value is reported as “over 20 fold”.
With `O=C(O)c1cc(-c2ccccc2O)nc2c1cnn2Cc1ccncc1` [Compound 40] the “fold loss of affinity/potency toward BasE relative to 15” value was 7 fold.
With `Cc1csc(-c2cc(C(=O)O)c3cnn(Cc4ccncc4)c3n2)c1` [Compound 78] the “fold loss of affinity/potency toward BasE relative to 15” value was 2.4 fold.
With `O=C(O)c1cc(-c2cccs2)nc2c1cnn2Cc1ccncc1` [Compound 76] the “fold loss of affinity/potency toward BasE relative to 15” value was ~ 10 fold.
In the case of `C#Cc1cc(C(=O)O)c2cnn(Cc3ccncc3)c2n1` [Compound 93, 6-Ethynyl-1-(pyridin-4-ylmethyl)-1H-pyrazolo[3,4-b]pyridine-4-carboxylic acid], the “fold loss of affinity/potency toward BasE relative to 15” value is reported as ~ 55 fold.
For `O=C(O)c1cc(-c2ccc3[nH]ccc3c2)nc2c1cnn2Cc1ccncc1` [Compound 87], the “fold loss of affinity/potency toward BasE relative to 15” value was 1.7 fold.
For `COc1ccc(-c2cc(C(=O)O)c3cnn(Cc4ccncc4)c3n2)cc1` [Compound 62], the “fold loss of affinity/potency toward BasE relative to 15” value was 2.2 fold.
For `O=C(O)c1cc(-c2ccccc2)cc2c1cnn2Cc1ccncc1` [Compound 16, 6-Phenyl-1-(pyridin-4-ylmethyl)-1H-indazole-4-carboxylic acid], the “fold loss of affinity/potency toward BasE relative to 15” value was 2 fold.
For `O=C(O)c1ccc(-c2cc(C(=O)O)c3cnn(Cc4ccncc4)c3n2)cc1` [Compound 58], the “fold loss of affinity/potency toward BasE relative to 15” value was “over 20 fold”.
With `O=C(O)c1cc(-c2cncc3ccccc23)nc2c1cnn2Cc1ccncc1` [Compound 86] the “fold loss of affinity/potency toward BasE relative to 15” value was 215 fold.
For `O=C(O)c1cc(-c2ccc(-c3ccccc3)cc2)nc2c1cnn2Cc1ccncc1` [Compound 72], the “fold loss of affinity/potency toward BasE relative to 15” value was 3.5 fold.
In the case of `Nc1ccc(-c2cc(C(=O)O)c3cnn(Cc4ccncc4)c3n2)cc1` [Compound 52], the “fold loss of affinity/potency toward BasE relative to 15” value is reported as 2.2 fold.
For `C=Cc1cc(C(=O)O)c2cnn(Cc3ccncc3)c2n1` [Compound 91], the “fold loss of affinity/potency toward BasE relative to 15” value was ~ 55 fold.
For `O=C(O)c1cc(C#Cc2ccccc2)nc2c1cnn2Cc1ccncc1` [Compound 94, 6-(Phenylethynyl)-1-(pyridin-4-ylmethyl)-1H-pyrazolo[3,4-b]pyridine-4-carboxylic acid], the “fold loss of affinity/potency toward BasE relative to 15” value was ~ 10 fold.
In the case of `O=C(O)c1cc(=O)[nH]c2c1cnn2Cc1ccncc1` [Compound 98, 6-Oxo-1-(pyridin-4-ylmethyl)-6,7-dihydro-1H-pyrazolo[3,4-b]pyridine-4-carboxylic acid], the “fold loss of affinity/potency toward BasE relative to 15” value is reported as over 2800 fold.
In the case of `CCOC(=O)c1cc(-c2ccccc2)nc2c1cnn2Cc1ccncc1` [Compound 18, Ethyl 6-phenyl-1-(pyridin-4-ylmethyl)-1H-pyrazolo[3,4-b]pyridine-4-carboxylate], the “fold loss of affinity/potency toward BasE relative to 15” value is reported as 60 fold.

Same assay, conditions: relative to p-benzyloxy 67
In the case of `COc1ccc(COc2ccc(-c3cc(C(=O)O)c4cnn(Cc5ccncc5)c4n3)cc2)cc1` [Compound 68], the “fold less potent than 67 toward BasE” value is reported as 21 fold.

Molecular target: MbtA (Mycobacterium tuberculosis, UniProt P71716)
Sequence (P71716 whole entry): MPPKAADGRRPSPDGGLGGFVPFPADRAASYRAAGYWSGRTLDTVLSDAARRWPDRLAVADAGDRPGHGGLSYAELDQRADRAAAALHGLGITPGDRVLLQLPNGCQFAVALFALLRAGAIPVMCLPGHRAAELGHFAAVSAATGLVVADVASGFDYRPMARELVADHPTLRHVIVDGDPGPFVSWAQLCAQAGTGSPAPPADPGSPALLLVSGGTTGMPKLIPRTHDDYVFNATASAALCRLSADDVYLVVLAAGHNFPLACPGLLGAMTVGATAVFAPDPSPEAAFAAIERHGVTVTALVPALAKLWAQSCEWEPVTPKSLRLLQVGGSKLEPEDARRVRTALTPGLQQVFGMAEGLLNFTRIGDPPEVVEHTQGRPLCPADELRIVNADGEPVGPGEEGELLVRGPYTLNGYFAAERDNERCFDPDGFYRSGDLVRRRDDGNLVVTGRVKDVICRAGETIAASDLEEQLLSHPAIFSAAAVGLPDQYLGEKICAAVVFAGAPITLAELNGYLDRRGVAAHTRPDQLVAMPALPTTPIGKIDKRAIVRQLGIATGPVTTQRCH
Assay: Fluorescence polarization displacement of Fl-Sal-AMS 14 from MbtA
Assay type: binding
Details: ratio of KD of lead compound 15 to compound
For `Cc1ccc(-c2cc(C(=O)O)c3cnn(Cc4ccncc4)c3n2)cc1` [Compound 39], the “fold increase in affinity toward MbtA relative to 15” value was 2.6 fold.

Same assay, conditions: ratio of KD to lead compound 15
In the case of `O=C(O)c1cc(-c2ccccc2)cc2nn(Cc3ccncc3)cc12` [Compound 99, 6-Phenyl-2-(pyridin-4-ylmethyl)-2H-indazole-4-carboxylic acid], the “fold loss of affinity toward MbtA relative to 15” value is reported as 15.5 fold.
In the case of `O=C(O)c1ccc(-c2cc(C(=O)O)c3cnn(Cc4ccncc4)c3n2)cc1` [Compound 58], the “fold loss of affinity toward MbtA relative to 15” value is reported as 2 fold.

Molecular target: T1, BasE
Assay: not given
Details: read-out: KD1, equilibrium dissociation constant of probe 14 for BasE; cited from earlier work
In the case of “22-O-{2-[2-(2-{[(fluorescein-5-yl)carbonyl]amino}ethoxy)ethoxy]ethoxy}-52-O-[N-(salicyl)sulfamoyl]adenosine [Compound 14]”, the Kd is listed as 84.3 nM.

Tested on: A. baumannii
Assay: not given
Details: ref unpublished results, Brian Beck, Laura Celia, ATCC; cited from earlier work
For `Nc1ncnc2c1ncn2[C@@H]1O[C@H](COS(=O)(=O)NC(=O)c2cccc(O)c2O)[C@@H](O)[C@H]1O` [2,3-DHB-AMS, 5′-O-[N-(2,3-dihydroxybenzoyl)sulfamoyl]adenosine], the “activity against A. baumannii” value is listed as “no activity”.

Tested on: K. pneumoniae
Assay: not given
Details: ref unpublished results, Brian Beck, Laura Celia, ATCC; cited from earlier work
In the case of `Nc1ncnc2c1ncn2[C@@H]1O[C@H](COS(=O)(=O)NC(=O)c2cccc(O)c2O)[C@@H](O)[C@H]1O` [2,3-DHB-AMS, 5′-O-[N-(2,3-dihydroxybenzoyl)sulfamoyl]adenosine], the “activity against K. pneumoniae” value is given as “no activity”.

Tested on: E. coli
Assay: not given
Details: ref unpublished results, Brian Beck, Laura Celia, ATCC; cited from earlier work
In the case of `Nc1ncnc2c1ncn2[C@@H]1O[C@H](COS(=O)(=O)NC(=O)c2cccc(O)c2O)[C@@H](O)[C@H]1O` [2,3-DHB-AMS, 5′-O-[N-(2,3-dihydroxybenzoyl)sulfamoyl]adenosine], the “activity against E. coli” value is given as “no activity”.

Tested on: P. aeruginosa
Assay: not given
Details: ref unpublished results, Brian Beck, Laura Celia, ATCC; cited from earlier work
For `Nc1ncnc2c1ncn2[C@@H]1O[C@H](COS(=O)(=O)NC(=O)c2cccc(O)c2O)[C@@H](O)[C@H]1O` [2,3-DHB-AMS, 5′-O-[N-(2,3-dihydroxybenzoyl)sulfamoyl]adenosine], the “activity against P. aeruginosa” value is listed as “no activity”.
